pIC50: −log10 of the molar value. Like-named read-outs stand apart in the source and are kept apart here.
Legend:
COLO 205 = assay: NCI in vitro cytotoxicity screen; type: cell-based; settings: Homo sapiens, COLO 205, 48 h, read-out: LC50
Experimental: (§1) The National Cancer Institute (NCI), Bethesda, Md., USA has available an in vitro cytotoxicity screen which consists of approximately 60 human tumour cell lines against which compounds are tested at a minimum of five concentrations each differing 10-fold. A 48 hour continuous exposure protocol is used, where cell viability or growth is estimated with an SRB protein assay.
(§2) The test compounds were evaluated against approximately 60 human tumour cell lines. The NCI screening procedures were described in detail by Monks and co-workers (Monks, A et al., Journal of the National Cancer Institute, 1991, 83, 757). Briefly, cell suspensions were diluted according to the particular cell type and the expected target cell density (5000-40,000 cells per well based on cell growth characteristics), and added by pipette (100 μL) into 96-well microtitre plates. The cells were allowed a preincubation period of 24 hours at 37° C. for stabilisation. Dilutions at twice the intended test concentration were added at time zero in 100 μL aliquots to the wells. The test compounds were evaluated at five 10-fold dilutions (10^−4, 10^−5, 10^−6, 10^−7 and 10^−[…]). The test compounds were incubated for 48 hours in 5% CO2 atmosphere and 100% humidity. The cells were then assayed using the sulphorhodamine B assay. A plate reader was used to read the optical densities and a microcomputer processed the readings into LC50 values, which is the dosage required to kill half of the cells.

HCC-2998 = assay: NCI in vitro cytotoxicity screen; type: cell-based; settings: Homo sapiens, HCC 2998, 48 h, read-out: LC50
Experimental: as §1, §2

KM12 = assay: NCI in vitro cytotoxicity screen; type: cell-based; settings: Homo sapiens, KM12, 48 h, read-out: LC50
Experimental: as §1, §2

MALME-3M = assay: NCI in vitro cytotoxicity screen; type: cell-based; settings: Homo sapiens, Malme-3M, 48 h, read-out: LC50
Experimental: as §1, §2

NCI-H460 = assay: NCI in vitro cytotoxicity screen; type: cell-based; settings: Homo sapiens, NCI-H460, 48 h, read-out: LC50
Experimental: as §1, §2

SNB-75 = assay: NCI in vitro cytotoxicity screen; type: cell-based; settings: Homo sapiens, SNB-75, 48 h, read-out: LC50
Experimental: as §1, §2

UACC-62 = assay: NCI in vitro cytotoxicity screen; type: cell-based; settings: Homo sapiens, UACC-62, 48 h, read-out: LC50
Experimental: as §1, §2

A2780cisR = assay: Ovarian carcinoma cytotoxicity assay; type: cell-based, human; settings: Homo sapiens, A2780cisR
Experimental: (§3) Compounds of the invention (and Anthramycin as a comparison) were evaluated for their cytotoxic activity in ovarian cell lines by Dr Lloyd R. Kelland's group at The Institute of Cancer Research, Sutton, UK. The five cell lines investigated were SKOV-3, A2780/A2780cisR and CH1/CH1cisR (cis R denotes that the cell line is resistant to cisplatin).
(§4) Single viable cells were seeded in growth medium (160 μL) in […] microtitre plates and allowed to attach overnight. […] After 96 hours, the medium was removed and the remaining cells fixed by exposure to 10% trichloroacetic acid on ice for 30 minutes. The wells were then washed 3-4 times with tap water, air dried overnight and treated with 100 μL of sulphorhodamine B (0.4%) dissolved in 1% acetic acid. Staining was allowed to continue for 10-15 minutes, then the wells were washed 3-4 times with 1% acetic acid, air dried and then added to Tris base (100 μL of 10 mM). Plates were then shaken and absorbance readings at 540 nm were determined using a plate reader. By using the Quattro-Pro software package, the IC50 values were calculated from plots of concentration versus percentage absorbance (compared with 8 untreated wells).

A2780 = assay: Ovarian carcinoma cytotoxicity assay; type: cell-based, human; settings: Homo sapiens
Experimental: as §3, §4

CH1cisR = assay: Ovarian carcinoma cytotoxicity assay; type: cell-based; settings: Homo sapiens, CH1cisR
Experimental: as §3, §4

CH1 = assay: Ovarian carcinoma cytotoxicity assay; type: cell-based; settings: Homo sapiens
Experimental: as §3, §4

SKOV-3 = assay: Ovarian carcinoma cytotoxicity assay; type: cell-based; settings: Homo sapiens
Experimental: as §3, §4

NCI-H23 = assay: NCI in vitro cytotoxicity screen; type: cell-based; settings: Homo sapiens, NCI-H23, 48 h, read-out: LC50
Experimental: as §1, §2

RXF 393 = assay: NCI in vitro cytotoxicity screen; type: cell-based; settings: Homo sapiens, RXF 393, 48 h, read-out: LC50
Experimental: as §1, §2

SK-MEL-2 = assay: NCI in vitro cytotoxicity screen; type: cell-based; settings: Homo sapiens, SK-MEL-2, 48 h, read-out: LC50
Experimental: as §1, §2

[1] = system: approximately 60 human tumour cell lines; assay: NCI in vitro cytotoxicity screen, whole panel; type: cell-based
Experimental: as §1
as §2, with “The test compounds were incubated for 48 hours in 5% CO2 atmosphere and 100% humidity. The cells were then assayed using the sulphorhodamine B assay.” left out

M14 = assay: NCI in vitro cytotoxicity screen; type: cell-based; settings: Homo sapiens, M14, 48 h, read-out: LC50
Experimental: as §1, §2

MDA-MB-435 = assay: NCI in vitro cytotoxicity screen; type: cell-based; settings: Homo sapiens, MDA-MB-435, 48 h, read-out: LC50
Experimental: as §1, §2

NCI-H522 = assay: NCI in vitro cytotoxicity screen; type: cell-based; settings: Homo sapiens, NCI-H522, 48 h, read-out: LC50
Experimental: as §1, §2

SK-MEL-28 = assay: NCI in vitro cytotoxicity screen; type: cell-based; settings: Homo sapiens, SK-MEL-28, 48 h, read-out: LC50
Experimental: as §1, §2

SK-MEL-5 = assay: NCI in vitro cytotoxicity screen; type: cell-based; settings: Homo sapiens, SK-MEL-5, 48 h, read-out: LC50
Experimental: as §1, §2

UACC-257 = assay: NCI in vitro cytotoxicity screen; type: cell-based; settings: Homo sapiens, UACC-257, 48 h, read-out: LC50
Experimental: as §1, §2

[2] = cisplatin-resistant, 96 hours, sulphorhodamine B, read-out: IC50 A2780cisR
[3] = A2780, 96 hours, sulphorhodamine B, read-out: IC50 A2780
[4] = cisplatin-resistant, 96 hours, sulphorhodamine B, read-out: IC50 CH1cisR
[5] = CH1, 96 hours, sulphorhodamine B, read-out: IC50 CH1
[6] = SK-OV-3, 96 hours, sulphorhodamine B, read-out: IC50 Skov3

SMILES | CC50 (COLO 205) [µM] | CC50 (HCC-2998) [µM] | CC50 (MALME-3M) [µM] | CC50 (UACC-62) [µM] | pIC50 (A2780cisR; [2]) | pIC50 (A2780; [3]) | pIC50 (CH1cisR; [4]) | pIC50 (CH1; [5]) | pIC50 (SKOV-3; [6]) | CC50 (RXF 393) [µM] | CC50 (SK-MEL-2) [µM] | other results
COC(=O)CC1=CN2C(=O)c3cc(OC)c(OCc4ccccc4)cc3N=C[C@@H]2C1 [UP2003 (24)] | 1.4 | 5.2 | 0.7 | 0.7 | 6.92 | 7.84 | 7.40 | 7.80 | 7.92 |  |  | CC50 (KM12): 9.5 µM; CC50 (NCI-H460): 7.6 µM; CC50 (SNB-75): 6 µM
COc1cc2c(cc1OCc1ccccc1)N=C[C@@H]1CC(CCOC(C)=O)=CN1C2=O [UP2051 (31), (11aS)-2-(Acyloxy-2-ethyl)-8-benzyloxy-7-methoxy-1,2,3,11a-tetrahydro-5H-pyrrolo[2,1-c][1,4]benzodiazepin-5-one] |  | 5.2 | 5.1 |  |  |  |  |  |  | 0.8 | 7.6 | CC50 (NCI-H23): 9.3 µM; pIC50 (A2780cisR; 96 h, read-out: IC50 A2780cisR, cisplatin-resistant, 96 hours, sulphorhodamine B): 6.57; pIC50 (A2780; A2780, 96 h, read-out: IC50 A2780, 96 hours, sulphorhodamine B): 7.00; pIC50 (CH1cisR; 96 h, read-out: IC50 CH1cisR, cisplatin-resistant, 96 hours, sulphorhodamine B): 6.80; pIC50 (CH1; CH1, 96 h, read-out: IC50 CH1, 96 hours, sulphorhodamine B): 6.98; pIC50 (SKOV-3; SK-OV-3, 96 h, read-out: IC50 Skov3, 96 hours, sulphorhodamine B): 6.34
O=C1c2cc(-c3cccc([N+](=O)[O-])c3)ccc2N=C[C@@H]2CCCN12 [UP2029 (140), (11aS)-7-(3′-Nitrophenyl)-1,2,3,11a-tetrahydro-5H-pyrrolo[2,1-c][1,4]benzodiazepin-5-one] |  |  |  |  | 4.49 | 4.46 | 4.85 | 4.65 | 5.85 |  |  | cytotoxic activity (LC50 below 10 μM) ([1]; all panels): completely abolished cytotoxic activity
O=C1c2cc(-c3ccccc3)ccc2N=C[C@@H]2CCCN12 [UP2026 (136), (11aS)-7-Phenyl-1,2,3,11a-tetrahydro-5H-pyrrolo[2,1-c][1,4]benzodiazepin-5-one] | 8.8 | 6.4 | 6.1 | 6.6 | 5.43 | 5.94 | 5.84 | 5.82 | 5.31 | 7.6 | 7.4 | CC50 (M14): 7.8 µM; CC50 (MDA-MB-435): 6.3 µM; CC50 (NCI-H522): 7.8 µM; CC50 (SK-MEL-28): 7.1 µM; CC50 (SK-MEL-5): 9 µM; CC50 (UACC-257): 7.7 µM; cytotoxicity in the CNS cell line panel ([1]; CNS panel): inactive

Source: patent publication US7049311B1, “Pyrrolbenzodiazepines” (Spirogen Limited, priority 1998, dated 2006)
